{"source": "ChEMBL document CHEMBL1201862", "about": "“PubChem BioAssay data set” (2004)", "experiment_in_all_cases": "NCI-60 cell line screen, 48 h", "key": {"[1]": {"tested_on": "786-0"}, "[2]": {"tested_on": "A498"}, "[3]": {"tested_on": "ACHN"}, "[4]": {"tested_on": "BT-549"}, "[5]": {"tested_on": "CAKI-1"}, "[6]": {"tested_on": "CCRF-CEM"}, "[7]": {"tested_on": "COLO 205"}, "[8]": {"tested_on": "EKVX"}, "[9]": {"tested_on": "HCC 2998"}, "[10]": {"tested_on": "HCT-116"}, "[11]": {"tested_on": "HCT-15"}, "[12]": {"tested_on": "HL-60"}, "[13]": {"tested_on": "HOP-62"}, "[14]": {"tested_on": "HOP-92"}, "[15]": {"tested_on": "HT-29"}, "[16]": {"tested_on": "Hs-578T"}, "[17]": {"tested_on": "IGROV-1"}, "[18]": {"tested_on": "K562"}, "[19]": {"tested_on": "KM12"}, "[20]": {"tested_on": "LOX IMVI"}, "[21]": {"tested_on": "M14"}, "[22]": {"tested_on": "MCF7"}, "[23]": {"tested_on": "MDA-MB-231"}, "[24]": {"tested_on": "MDA-MB-435"}, "[25]": {"tested_on": "MOLT-4"}, "[26]": {"tested_on": "NCI-H226"}, "[27]": {"tested_on": "NCI-H23"}, "[28]": {"tested_on": "NCI/ADR-RES"}, "[29]": {"tested_on": "OVCAR-4"}, "[30]": {"tested_on": "OVCAR-8"}, "[31]": {"tested_on": "PC-3"}, "[32]": {"tested_on": "RPMI-8226"}, "[33]": {"tested_on": "RXF 393"}, "[34]": {"tested_on": "SF-268"}, "[35]": {"tested_on": "SF-295"}, "[36]": {"tested_on": "SF-539"}, "[37]": {"tested_on": "SK-MEL-28"}, "[38]": {"tested_on": "SK-MEL-2"}, "[39]": {"tested_on": "SK-MEL-5"}, "[40]": {"tested_on": "SK-OV-3"}, "[41]": {"tested_on": "SNB-19"}, "[42]": {"tested_on": "SNB-75"}, "[43]": {"tested_on": "SR"}, "[44]": {"tested_on": "SW-620"}, "[45]": {"tested_on": "TK-10"}, "[46]": {"tested_on": "U-251"}, "[47]": {"tested_on": "UACC-257"}, "[48]": {"tested_on": "UACC-62"}, "[49]": {"tested_on": "UO-31"}, "[50]": {"tested_on": "A549"}, "[51]": {"tested_on": "DU-145"}, "[52]": {"tested_on": "NCI-H522"}, "[53]": {"tested_on": "OVCAR-3"}, "[54]": {"tested_on": "OVCAR-5"}, "[55]": {"tested_on": "SN12C"}, "[56]": {"tested_on": "T47D"}}, "note": "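Growth conditions: 96-well plates. Treatment: test compound, 48 hours, 5 concentrations. Analysis: linear interpolation between bracketing concentrations; unreached endpoints set to highest concentration. Here, GI50 denotes the concentration required for 50% inhibition of growth.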 Active and inactive are the calls of the source. Cut-off read from the data, not from the text of the source: active = GI50 up to about 1.1 µM and inactive = higher."}
{"smiles": "Cc1c(/C=N/NC(=S)Nc2ccc([N+](=O)[O-])cc2)c(=O)n(-c2ccccc2)n1C", "values": [{"measurement": "GI50", "setting": "[1]", "value": "14.3 µM (inactive)"}, {"measurement": "GI50", "setting": "[2]", "value": "10.9 µM (inactive)"}, {"measurement": "GI50", "setting": "[3]", "value": "11.5 µM (inactive)"}, {"measurement": "GI50", "setting": "[4]", "value": "15.7 µM (inactive)"}, {"measurement": "GI50", "setting": "[5]", "value": "6.85 µM (inactive)"}, {"measurement": "GI50", "setting": "[6]", "value": "7.29 µM (inactive)"}, {"measurement": "GI50", "setting": "[7]", "value": "50.4 µM (inactive)"}, {"measurement": "GI50", "setting": "[8]", "value": "10.1 µM (inactive)"}, {"measurement": "GI50", "setting": "[9]", "value": "42.3 µM (inactive)"}, {"measurement": "GI50", "setting": "[10]", "value": "18.6 µM (inactive)"}, {"measurement": "GI50", "setting": "[11]", "value": 3.08, "unit": "µM"}, {"measurement": "GI50", "setting": "[12]", "value": "35.2 µM (inactive)"}, {"measurement": "GI50", "setting": "[13]", "value": "11.6 µM (inactive)"}, {"measurement": "GI50", "setting": "[14]", "value": "11.8 µM (inactive)"}, {"measurement": "GI50", "setting": "[15]", "value": "12.9 µM (inactive)"}, {"measurement": "GI50", "setting": "[16]", "value": "15.8 µM (inactive)"}, {"measurement": "GI50", "setting": "[17]", "value": "12.5 µM (inactive)"}, {"measurement": "GI50", "setting": "[18]", "value": "47.1 µM (inactive)"}, {"measurement": "GI50", "setting": "[19]", "value": "13.1 µM (inactive)"}, {"measurement": "GI50", "setting": "[20]", "value": "15.2 µM (inactive)"}, {"measurement": "GI50", "setting": "[21]", "value": "11.2 µM (inactive)"}, {"measurement": "GI50", "setting": "[22]", "value": "20 µM (inactive)"}, {"measurement": "GI50", "setting": "[23]", "value": "20.7 µM (inactive)"}, {"measurement": "GI50", "setting": "[24]", "value": "> 100 µM (inactive)"}, {"measurement": "GI50", "setting": "[25]", "value": "9.48 µM (inactive)"}, {"measurement": "GI50", "setting": "[26]", "value": "10.8 µM (inactive)"}, {"measurement": "GI50", "setting": "[27]", "value": "17.9 µM (inactive)"}, {"measurement": "GI50", "setting": "[28]", "value": "9.66 µM (inactive)"}, {"measurement": "GI50", "setting": "[29]", "value": "14.6 µM (inactive)"}, {"measurement": "GI50", "setting": "[30]", "value": "13.6 µM (inactive)"}, {"measurement": "GI50", "setting": "[31]", "value": "19.1 µM (inactive)"}, {"measurement": "GI50", "setting": "[32]", "value": "48.5 µM (inactive)"}, {"measurement": "GI50", "setting": "[33]", "value": "12.4 µM (inactive)"}, {"measurement": "GI50", "setting": "[34]", "value": "13.5 µM (inactive)"}, {"measurement": "GI50", "setting": "[35]", "value": "8.53 µM (inactive)"}, {"measurement": "GI50", "setting": "[36]", "value": "16.4 µM (inactive)"}, {"measurement": "GI50", "setting": "[37]", "value": "> 100 µM (inactive)"}, {"measurement": "GI50", "setting": "[38]", "value": "15.5 µM (inactive)"}, {"measurement": "GI50", "setting": "[39]", "value": "33.8 µM (inactive)"}, {"measurement": "GI50", "setting": "[40]", "value": "13.5 µM (inactive)"}, {"measurement": "GI50", "setting": "[41]", "value": "16 µM (inactive)"}, {"measurement": "GI50", "setting": "[42]", "value": "13.3 µM (inactive)"}, {"measurement": "GI50", "setting": "[43]", "value": "17.4 µM (inactive)"}, {"measurement": "GI50", "setting": "[44]", "value": "25.6 µM (inactive)"}, {"measurement": "GI50", "setting": "[45]", "value": "11.8 µM (inactive)"}, {"measurement": "GI50", "setting": "[46]", "value": "15.6 µM (inactive)"}, {"measurement": "GI50", "setting": "[47]", "value": "30.9 µM (inactive)"}, {"measurement": "GI50", "setting": "[48]", "value": "17.6 µM (inactive)"}, {"measurement": "GI50", "setting": "[49]", "value": "11.4 µM (inactive)"}]}
{"smiles": "CC1=C(C#N)C(=C(C#N)C#N)OC1(C)Cc1ccccc1", "note": "(configuration not stated)", "values": [{"measurement": "GI50", "setting": "[1]", "value": "41.7 µM (inactive)"}, {"measurement": "GI50", "setting": "[2]", "value": "87.7 µM (inactive)"}, {"measurement": "GI50", "setting": "[50]", "value": "56.8 µM (inactive)"}, {"measurement": "GI50", "setting": "[3]", "value": "18.5 µM (inactive)"}, {"measurement": "GI50", "setting": "[4]", "value": "35.1 µM (inactive)"}, {"measurement": "GI50", "setting": "[5]", "value": "24.7 µM (inactive)"}, {"measurement": "GI50", "setting": "[7]", "value": "21 µM (inactive)"}, {"measurement": "GI50", "setting": "[51]", "value": "37 µM (inactive)"}, {"measurement": "GI50", "setting": "[8]", "value": "45.9 µM (inactive)"}, {"measurement": "GI50", "setting": "[9]", "value": "29.5 µM (inactive)"}, {"measurement": "GI50", "setting": "[10]", "value": "36.7 µM (inactive)"}, {"measurement": "GI50", "setting": "[11]", "value": 23.3, "unit": "µM"}, {"measurement": "GI50", "setting": "[13]", "value": "58.9 µM (inactive)"}, {"measurement": "GI50", "setting": "[14]", "value": "19.7 µM (inactive)"}, {"measurement": "GI50", "setting": "[15]", "value": "32.7 µM (inactive)"}, {"measurement": "GI50", "setting": "[16]", "value": "30 µM (inactive)"}, {"measurement": "GI50", "setting": "[17]", "value": "51.3 µM (inactive)"}, {"measurement": "GI50", "setting": "[18]", "value": "39.6 µM (inactive)"}, {"measurement": "GI50", "setting": "[19]", "value": "55.5 µM (inactive)"}, {"measurement": "GI50", "setting": "[20]", "value": "23.4 µM (inactive)"}, {"measurement": "GI50", "setting": "[21]", "value": "30.8 µM (inactive)"}, {"measurement": "GI50", "setting": "[22]", "value": "38.2 µM (inactive)"}, {"measurement": "GI50", "setting": "[23]", "value": "47.9 µM (inactive)"}, {"measurement": "GI50", "setting": "[24]", "value": "> 100 µM (inactive)"}, {"measurement": "GI50", "setting": "[25]", "value": "34.3 µM (inactive)"}, {"measurement": "GI50", "setting": "[26]", "value": "31.2 µM (inactive)"}, {"measurement": "GI50", "setting": "[27]", "value": "36.7 µM (inactive)"}, {"measurement": "GI50", "setting": "[52]", "value": "14.4 µM (inactive)"}, {"measurement": "GI50", "setting": "[28]", "value": "31.9 µM (inactive)"}, {"measurement": "GI50", "setting": "[53]", "value": "14.6 µM (inactive)"}, {"measurement": "GI50", "setting": "[29]", "value": "21.9 µM (inactive)"}, {"measurement": "GI50", "setting": "[54]", "value": "61.1 µM (inactive)"}, {"measurement": "GI50", "setting": "[30]", "value": "65.5 µM (inactive)"}, {"measurement": "GI50", "setting": "[31]", "value": "36.2 µM (inactive)"}, {"measurement": "GI50", "setting": "[32]", "value": "42.7 µM (inactive)"}, {"measurement": "GI50", "setting": "[33]", "value": "17.6 µM (inactive)"}, {"measurement": "GI50", "setting": "[34]", "value": "49.5 µM (inactive)"}, {"measurement": "GI50", "setting": "[35]", "value": "67.3 µM (inactive)"}, {"measurement": "GI50", "setting": "[36]", "value": "64.7 µM (inactive)"}, {"measurement": "GI50", "setting": "[37]", "value": "49.9 µM (inactive)"}, {"measurement": "GI50", "setting": "[38]", "value": "36.7 µM (inactive)"}, {"measurement": "GI50", "setting": "[39]", "value": "67.8 µM (inactive)"}, {"measurement": "GI50", "setting": "[40]", "value": "> 100 µM (inactive)"}, {"measurement": "GI50", "setting": "[55]", "value": "82.6 µM (inactive)"}, {"measurement": "GI50", "setting": "[41]", "value": "> 100 µM (inactive)"}, {"measurement": "GI50", "setting": "[42]", "value": "> 100 µM (inactive)"}, {"measurement": "GI50", "setting": "[44]", "value": "42.9 µM (inactive)"}, {"measurement": "GI50", "setting": "[56]", "value": "29.9 µM (inactive)"}, {"measurement": "GI50", "setting": "[45]", "value": "36.4 µM (inactive)"}, {"measurement": "GI50", "setting": "[46]", "value": "> 100 µM (inactive)"}, {"measurement": "GI50", "setting": "[47]", "value": "49.4 µM (inactive)"}, {"measurement": "GI50", "setting": "[48]", "value": "20.6 µM (inactive)"}, {"measurement": "GI50", "setting": "[49]", "value": "18.7 µM (inactive)"}]}
